Experimental data: publication PMC12797171, “Preclinical Evaluation of a ^177Lu-Labeled Gastrin-Releasing Peptide Receptor Antagonist and Prostate Cancer Treatment with Monotherapy and in Combination with Everolimus” (ACS Pharmacology & Translational Science, 2025)
Several values for one entry are separate records, joined by “and”; a condition that tells them apart may be missing. Identical values can stand only once.

How the values were obtained:
PC-3 tumors = assay: In vivo combination therapy with everolimus in PC-3 tumor bearing mice; design: species or system mouse; conditions: for Tumor volume, average: 5mg/kg (x3)
From the text: Treatment began once tumors reached the same size threshold used in the monotherapy studies. Animals were divided into three groups (n = 4–5 per group) and received one of the following regimens: • 1.
Monitoring procedures matched those used in the monotherapy experiments.
The procedure is detailed in the supplementary material.
initiation of therapy in the combination treatment studies. Three groups of 5 mice per group were
Both monotherapy and combination

[1] = Morphological assessment / tolerability (H&E of kidney, pancreas, tumor)
Method: Selected mouse organs (kidney, pancreas and tumor) were dissected from the sacrificed animals and immediately frozen using liquid nitrogen. Frozen tissue samples were sectioned of 7 μm thickness using a cryostat maintained at – 20 °C to – 25 °C and mounted onto microscope glass slides followed by staining with hematoxylin and eosin for microscopic examination using standard protocols (details in Supporting Information).
Frozen tissue samples (kidney, pancreas and tumor) were sectioned at 7 µm thickness using a cryostat
maintained at −20°C to −25°C and mounted onto microscope glass slides. Sections were air-dried at
room temperature for 15 minutes and subsequently fixed in 4% paraformaldehyde for 10 minutes. After
rinsing in phosphate-buffered saline, slides were stained with hematoxylin for 5 minutes, rinsed in
running tap water and differentiated in 1% acid alcohol followed by bluing in ammonia water. Sections
were then counterstained with eosin for 1 minute and briefly washed in 70% ethanol to remove excess
stain. Slides were dehydrated through graded ethanol (70%, 95%, 100%) and mounted with a permanent
mounting medium. Stained sections were examined using a light microscope.

CO[C@H]1C[C@@H]2CC[C@@H](C)[C@@](O)(O2)C(=O)C(=O)N2CCCC[C@H]2C(=O)O[C@H]([C@H](C)C[C@@H]2CC[C@@H](OCCO)[C@H](OC)C2)CC(=O)[C@H](C)/C=C(\C)[C@@H](O)[C@@H](OC)C(=O)[C@H](C)C[C@H](C)/C=C/C=C/C=C/1C [Everolimus, everolimus]
Median survival (PC-3 tumors; 5 mg/kg/day for 3 days i.p.): 27.5 days and ~27 days | Tumor volume, average (PC-3 tumors; day 0): 100.06 mm3 | Tumor volume, average (PC-3 tumors; day 2): 108.59 mm3 | Tumor volume, average (PC-3 tumors; day 4): 107.95 mm3 | Tumor volume, average (PC-3 tumors; day 6): 97.61 mm3 | Tumor volume, average (PC-3 tumors; day 8): 97.18 mm3 | Tumor volume, average (PC-3 tumors; day 10): 104.48 mm3 | Tumor volume, average (PC-3 tumors; day 12): 131.10 mm3 | Tumor volume, average (PC-3 tumors; day 14): 181.07 mm3 | Tumor volume, average (PC-3 tumors; day 16): 193.30 mm3 | Tumor volume, average (PC-3 tumors; day 18): 241.75 mm3 | Tumor volume, average (PC-3 tumors; day 20): 376.61 mm3 | Tumor volume, average (PC-3 tumors; day 22): 630.33 mm3 | Tumor volume, average (PC-3 tumors; day 24): 524.51 mm3 | Tumor volume, average (PC-3 tumors; day 27): 794.32 mm3 | Tumor volume, average (PC-3 tumors; day 29): 970.40 mm3 | effect on tumor growth (PC-3 tumors; everolimus alone, 5 mg/kg/day for 3 days): moderately delayed tumor growth but did not stop it | Pancreas, microscopic tissue examination ([1]; 5mg/kg (x3)): No obvious lesions | tolerability ([1]; three doses, physical condition and weight): no observable side effects
